Key:
galium = test: Test C postemergence; type: in vivo, Galium aparine; settings: Galium, post-emergence
Excerpt: (§1) Seeds of plant species selected from blackgrass (Alopecurus myosuroides), Italian ryegrass (Lolium multiflorum), wheat, winter (winter wheat, Triticum aestivum), galium (catchweed bedstraw, Galium aparine), corn (Zea mays), large (Lg) crabgrass (Digitaria sanguinalis), giant foxtail (Setaria faberii), johnsongrass (Sorghum halepense), lambsquarters (Chenopodium album), morningglory (Ipomoea coccinea), yellow nutsedge (Cyperus esculentus), pigweed (Amaranthus retroflexus), ragweed (common ragweed, Ambrosia elatior), soybean (Glycine max), barnyardgrass (Echinochloa crus-galli), oilseed rape (Brassica napus), waterhemp (common waterhemp, Amaranthus rudis), kochia (Kochia scoparia), wild oat (Avena fatua), surinam grass (Brachiaria decumbens), foxtail, green (green foxtail, Setaria viridis), goosegrass (Eleusine indica), bromegrass, downy (downy bromegrass, Bromus tectorum), nightshade (eastern black nightshade, Solanum ptycanthum), cocklebur (common cocklebur, Xanthium strumarium), cupgrass, woolly (woolly cupgrass, Eriochloa villosa), bermudagrass (Cynodon dactylon), sunflower, (common oilseed sunflower, Helianthus annuus), Russian thistle (Salsola kali), and velvetleaf (Abutilon theophrasti) were planted into a blend of loam soil and sand and treated preemergence with test chemicals formulated in a non-phytotoxic solvent mixture which included a surfactant.
(§2) At the same time, plants selected from these crop and weed species and also barley, winter (winter barley, Hordeum vulgare), windgrass (Apera spica-venti), chickweed (common chickweed, Stellaria media), deadnettle (henbit deadnettle, Lamium amplexicaule), and canarygrass (littleseed canarygrass, Phalaris minor) were planted in pots containing Redi-Earth® planting medium (Scotts Company, 14111 Scottslawn Road, Marysville, Ohio 43041) comprising spaghnum peat moss, vermiculite, wetting agent and starter nutrients and treated with postemergence applications of test chemicals formulated in the same manner. Plants ranged in height from 2 to 18 cm (1- to 4-leaf stage) for postemergence treatments. Treated plants and controls were maintained in a greenhouse for 13 to 15 days, after which time all species were compared to controls and visually evaluated. Plant response ratings, summarized in Table C, are based on a scale of 0 to 100 where 0 is no effect and 100 is complete control. A dash (-) response means no test result.

wild oat = test: Test C postemergence; type: in vivo, Avena fatua; settings: Avena fatua, post-emergence
Excerpt: as §1, §2

blackgrass = test: Test C postemergence; type: in vivo, Alopecurus myosuroides; settings: Alopecurus myosuroides, post-emergence
Excerpt: as §1, §2

lambsquarters = test: Test C postemergence; type: in vivo, Chenopodium album; settings: Chenopodium album, post-emergence
Excerpt: as §1, §2

johnsongrass = test: Test C postemergence; type: in vivo, Sorghum halepense; settings: Sorghum halepense, post-emergence
Excerpt: as §1, §2

giant foxtail = test: Test A preemergence; type: in vivo, Setaria faberii
Method in brief: (§3)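 Injury scores run from 0, no effect, to 100, complete control, judged by eye against untreated plants roughly 10 days after treatment. Chemicals carried a surfactant in a non-phytotoxic solvent and went onto loam–sand soil preemergence or onto one- to two-leaf seedlings postemergence.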

barnyardgrass = test: Test A preemergence; type: in vivo, Echinochloa crus-galli
Method in brief: as §3

pigweed [1] = test: Test A postemergence; type: in vivo, Amaranthus retroflexus
Method in brief: as §3

velvetleaf = test: Test A postemergence; type: in vivo, Abutilon theophrasti
Method in brief: as §3

pigweed [2] = test: Test A preemergence; type: in vivo, Amaranthus retroflexus
Method in brief: as §3

large (Lg) crabgrass = test: Test C postemergence; type: in vivo, Digitaria sanguinalis; settings: Digitaria sanguinalis, post-emergence
Excerpt: as §1, §2

wheat = test: Test A preemergence; type: in vivo, Triticum aestivum
Method in brief: as §3

[3] = 125 g ai/ha, 0 to 100 scale where 0 is no effect and 100 is complete control
[4] = 500 g ai/ha, 0 to 100 scale where 0 is no effect and 100 is complete control
[5] = 125 g ai/ha, 0 to 100 scale, 0 no effect, 100 complete control

Clc1cnn(-c2ccccc2Oc2ncc(Br)cn2)c1 [Compound 5, 5-bromo-2-[2-(4-chloro-1H-pyrazol-1-yl)phenoxy]pyrimidine]
pest or weed control at 125 g/ha (galium; 125 g ai/ha, postemergence, read-out: Plant response rating (0 to 100), Galium): 80%
pest or weed control at 250 g/ha (galium; 250 g ai/ha, postemergence, read-out: Plant response rating (0 to 100), Galium): 95%
pest or weed control at 31 g/ha (galium; Postemergence, 31 g ai/ha, scale 0 to 100 (0 no effect, 100 complete control), 13 to 15 days, read-out: Plant response rating, Galium): 55%
pest or weed control at 62 g/ha (galium; Postemergence, 62 g ai/ha, scale 0 to 100 (0 no effect, 100 complete control), read-out: Plant response rating, Galium): 70%
pest or weed control at 125 g/ha (wild oat; 125 g ai/ha, postemergence, read-out: Plant response rating (0 to 100), Oat, Wild): 10%
pest or weed control at 250 g/ha (wild oat; 250 g ai/ha, postemergence, read-out: Plant response rating (0 to 100), Oat, Wild): 30%
pest or weed control at 31 g/ha (wild oat; Postemergence, 31 g ai/ha, scale 0 to 100 (0 no effect, 100 complete control), 13 to 15 days, read-out: Plant response rating, Oat, Wild): 0%
pest or weed control at 62 g/ha (wild oat; Postemergence, 62 g ai/ha, scale 0 to 100 (0 no effect, 100 complete control), read-out: Plant response rating, Oat, Wild): 5%
pest or weed control at 125 g/ha (blackgrass; 125 g ai/ha, postemergence, read-out: Plant response rating (0 to 100), Blackgrass): 20%
pest or weed control at 250 g/ha (blackgrass; 250 g ai/ha, postemergence, read-out: Plant response rating (0 to 100), Blackgrass): 45%
pest or weed control at 31 g/ha (blackgrass; Postemergence, 31 g ai/ha, scale 0 to 100 (0 no effect, 100 complete control), 13 to 15 days, read-out: Plant response rating, Blackgrass): 0%
pest or weed control at 62 g/ha (blackgrass; Postemergence, 62 g ai/ha, scale 0 to 100 (0 no effect, 100 complete control), read-out: Plant response rating, Blackgrass): 5%
pest or weed control at 125 g/ha (lambsquarters; 125 g ai/ha, postemergence, read-out: Plant response rating (0 to 100), Lambsquarters): 98%
pest or weed control at 250 g/ha (lambsquarters; 250 g ai/ha, postemergence, read-out: Plant response rating (0 to 100), Lambsquarters): 98%
pest or weed control at 31 g/ha (lambsquarters; Postemergence, 31 g ai/ha, scale 0 to 100 (0 no effect, 100 complete control), 13 to 15 days, read-out: Plant response rating, Lambsquarters): 80%
pest or weed control at 62 g/ha (lambsquarters; Postemergence, 62 g ai/ha, scale 0 to 100 (0 no effect, 100 complete control), read-out: Plant response rating, Lambsquarters): 95%
pest or weed control at 125 g/ha (johnsongrass; 125 g ai/ha, postemergence, read-out: Plant response rating (0 to 100), Johnsongrass): 5%
pest or weed control at 250 g/ha (johnsongrass; 250 g ai/ha, postemergence, read-out: Plant response rating (0 to 100), Johnsongrass): 10%
pest or weed control at 31 g/ha (johnsongrass; Postemergence, 31 g ai/ha, scale 0 to 100 (0 no effect, 100 complete control), 13 to 15 days, read-out: Plant response rating, Johnsongrass): 5%
pest or weed control at 62 g/ha (johnsongrass; Postemergence, 62 g ai/ha, scale 0 to 100 (0 no effect, 100 complete control), read-out: Plant response rating, Johnsongrass): 5%
pest or weed control at 125 g/ha (giant foxtail; Setaria faberi, pre-emergence, 240 h, 125 g ai/ha, 0 to 100 scale where 0 is no effect and 100 is complete control, read-out: Foxtail, Giant plant response rating): 90%
pest or weed control at 500 g/ha (giant foxtail; Setaria faberi, pre-emergence, 240 h, 500 g ai/ha, 0 to 100 scale, 0 no effect, 100 complete control, approx. 10 days, read-out: Foxtail, Giant plant response rating): 100%
pest or weed control at 125 g/ha (barnyardgrass; Echinochloa crus-galli, pre-emergence, 240 h, 125 g ai/ha, 0 to 100 scale where 0 is no effect and 100 is complete control, read-out: Barnyardgrass plant response rating): 10%
pest or weed control at 500 g/ha (barnyardgrass; Echinochloa crus-galli, pre-emergence, 240 h, 500 g ai/ha, 0 to 100 scale, 0 no effect, 100 complete control, approx. 10 days, read-out: Barnyardgrass plant response rating): 80%
pest or weed control at 125 g/ha (pigweed [1]; Amaranthus retroflexus, post-emergence, 125 g ai/ha, 0 to 100 scale where 0 is no effect and 100 is complete control, read-out: Plant response rating, Pigweed): 100%
pest or weed control at 500 g/ha (pigweed [1]; Amaranthus retroflexus, post-emergence, 240 h, 500 g ai/ha, 0 to 100 scale, 0 no effect, 100 complete control, read-out: Plant response rating Pigweed): 100%
pest or weed control at 125 g/ha (velvetleaf; Abutilon theophrasti, post-emergence, 240 h, 125 g ai/ha, 0 to 100 scale where 0 is no effect and 100 is complete control, read-out: Plant response rating, Velvetleaf): 100%
pest or weed control at 500 g/ha (velvetleaf; Abutilon theophrasti, post-emergence, 240 h, 500 g ai/ha, 0 to 100 scale, 0 no effect, 100 complete control, read-out: Plant response rating Velvetleaf): 100%
pest or weed control at 125 g/ha (pigweed [2]; Amaranthus retroflexus, pre-emergence, 240 h, 125 g ai/ha, 0 to 100 scale where 0 is no effect and 100 is complete control, read-out: Pigweed plant response rating): 100%
pest or weed control at 500 g/ha (pigweed [2]; Amaranthus retroflexus, pre-emergence, 240 h, 500 g ai/ha, 0 to 100 scale, 0 no effect, 100 complete control, approx. 10 days, read-out: Pigweed plant response rating): 100%
pest or weed control at 125 g/ha (large (Lg) crabgrass; 125 g ai/ha, postemergence, read-out: Plant response rating (0 to 100), Crabgrass, Large): 20%
pest or weed control at 250 g/ha (large (Lg) crabgrass; 250 g ai/ha, postemergence, read-out: Plant response rating (0 to 100), Crabgrass, Large): 20%
pest or weed control at 31 g/ha (large (Lg) crabgrass; Postemergence, 31 g ai/ha, scale 0 to 100 (0 no effect, 100 complete control), 13 to 15 days, read-out: Plant response rating, Crabgrass, Large): 5%
pest or weed control at 62 g/ha (large (Lg) crabgrass; Postemergence, 62 g ai/ha, scale 0 to 100 (0 no effect, 100 complete control), read-out: Plant response rating, Crabgrass, Large): 15%
plant injury at 125 g/ha (wheat; Triticum aestivum, pre-emergence, 240 h, 125 g ai/ha, 0 to 100 scale where 0 is no effect and 100 is complete control, read-out: Wheat plant response rating): 0%
plant injury at 500 g/ha (wheat; Triticum aestivum, pre-emergence, 240 h, 500 g ai/ha, 0 to 100 scale, 0 no effect, 100 complete control, approx. 10 days, read-out: Wheat plant response rating): 20%

FC(F)c1cccc(Oc2ncc(Cl)cn2)c1-n1cc(C(F)(F)F)cn1 [Compound 170]
Plant response rating, Foxtail, Giant (giant foxtail; [3]): 100
Foxtail, Giant plant response rating (giant foxtail; [4]): 90
Plant response rating, Barnyardgrass (barnyardgrass; [3]): 90
Barnyardgrass plant response rating (barnyardgrass; [4]): 100
Pigweed plant response rating (pigweed [1]; [3]): 100
Plant response rating, Pigweed (pigweed [1]; [4]): 100
Velvetleaf plant response rating (velvetleaf; [3]): 70
Plant response rating, Velvetleaf (velvetleaf; [4]): 100
Pigweed plant response rating (0 to 100 scale) (pigweed [2]; 125 g ai/ha): 100
Pigweed plant response rating (pigweed [2]; [4]): 100
Wheat plant response rating (0 to 100 scale) (wheat; 125 g ai/ha): 20
Wheat plant response rating (wheat; [4]): 20

NC(=S)c1cccc(Oc2ncc(Cl)cn2)c1-n1cc(Cl)cn1 [Compound 292]
Foxtail, Giant plant response rating (0 to 100 scale) (giant foxtail; 125 g ai/ha): 100
Foxtail, Giant plant response rating (giant foxtail; [4]): 100
Barnyardgrass plant response rating (0 to 100 scale, 0 is no effect, 100 is complete control) (barnyardgrass; 125 g ai/ha): 80
Barnyardgrass plant response rating (barnyardgrass; [4]): 100
Plant response rating, Pigweed (pigweed [1]; [5]): 100
Plant response rating, Pigweed (pigweed [1]; [4]): 100
Plant response rating, Velvetleaf (velvetleaf; [5]): 70
Plant response rating, Velvetleaf (velvetleaf; [4]): 100
Pigweed plant response rating (0 to 100 scale) (pigweed [2]; 125 g ai/ha): 100
Pigweed plant response rating (pigweed [2]; [4]): 100
Wheat plant response rating (0 to 100 scale) (wheat; 125 g ai/ha): 10
Wheat plant response rating (wheat; [4]): 30

N#Cc1cnn(-c2c(C#N)cccc2Oc2ncc(Br)cn2)c1 [Compound 135]
Plant response rating, Foxtail, Giant (giant foxtail; [3]): 70
Foxtail, Giant plant response rating (giant foxtail; [4]): 100
Plant response rating, Barnyardgrass (barnyardgrass; [3]): 40
Barnyardgrass plant response rating (barnyardgrass; [4]): 90
Pigweed plant response rating (pigweed [1]; [3]): 70
Plant response rating, Pigweed (pigweed [1]; [4]): 100
Plant response rating, Pigweed (pigweed [2]; [3]): 100
Pigweed plant response rating (pigweed [2]; [4]): 100

— US9695155B2, “Herbicidal substituted pyrimidinyloxy benzene compounds” (E. I. DU PONT DE NEMOURS AND COMPANY, priority 2013, dated 2017)
